Measured values published in patent US20040092549A1, “Methods and compositions for selective cancer chemotherapy” (priority 2001, published 2004).

Legend:
hepatoma cells = conditions: treatment as in Example 2
Experimental: (§2) Cultures are re-fed periodically with additions of respective supplements, with or without medium change as indicated. Controls consist of cells receiving growth medium without added supplement.
(§3) The following day, threonate treatment is initiated using one of two protocols.
(§4) In one protocol (short exposure), monolayers are washed and exposed directly to 1 mL/well of 7.5-30 mM threonate (prepared in Ringer's solution) for brief periods at 37 C. as described by Fay and Verlangieri (referenced above). […] After exposure, the solution is removed and replaced by growth medium. […]
(§5) Cell survival following treatment is assessed at predetermined intervals by taking viable cell counts using a Neubauer haemocytometer. Viable cells are scored as those capable excluding trypan blue as previously described (Harakeh and Jariwalla, Am.J.Clin.Nutr. 54:1231S-1235S (1991)). […]
(§6) The induction of apoptosis following treatment of various tumor cell types with the Test compositions and controls described in Example 1 is evaluated using an enzyme-linked immunoassay (“ELISA”) developed by Boehringer-Mannheim (Indianapolis, Ind.). […] The presence and level of nucleosomal fragments in cytoplasmic lysates after different treatments is determined using the procedure specified in the cell-death detection ELISA kit, supplied by Boehringer-Mannheim. […]

melanoma cells = conditions: treatment as in Example 2
Experimental: as §2, §3, §4, §5, §6

T-84 Colon Carcinoma = assay: Cell-death detection ELISA (apoptosis), T-84 colon carcinoma; format: cell-based, Human
Experimental: (§1) Working stock solutions (10× strength) are made in sterile water immediately before use. For comparative evaluation, stock solutions of Test 2 and Test 4 solutions are prepared in sterile water, normalized to contain AA equivalents identical to the Test 1 stock. These stocks are stored at room temperature for use in evaluations. […] Parallel sets of wells are treated similarly with stock solutions of CA+CT and CA alone, containing the same equivalents of AA as Test 1. Control cultures are treated with an equivalent volume of sterile water. Periodic treatment with these compositions is repeated at 1-2 day intervals by direct addition of fresh solutions (without change of growth medium). […] Briefly, the ELISA assay is carried out as follows. […] The “Number of Treatments” is the total number of treatments with the Composition. The “Maximum Fold Increase in Apoptosis” is the maximal fold change in apoptosis over the control and the “Maximum Dose” is the concentration of the Composition which induces the “Maximum Fold Apoptosis” compared to the control.

[1] = tested on: WRL-68 Normal Human Liver Cells; assay: Cell-death detection ELISA (apoptosis), WRL-68 normal liver cells; format: cell-based
Experimental: as §1

Malme-3M Melanoma = assay: Cell-death detection ELISA (apoptosis), Malme-3M melanoma; format: cell-based, Human
Experimental: as §1

[2] = tested on: Malme-3 Normal Human Skin Fibroblasts; assay: Cell-death detection ELISA (apoptosis), Malme-3 normal skin fibroblasts; format: cell-based
Experimental: as §1

[3] = tested on: SK-Hep-1 Liver adenocarcinoma; assay: Cell-death detection ELISA (apoptosis), SK-Hep-1 liver adenocarcinoma; format: cell-based, Human
Experimental: as §1

SK-N-MC Neuroblastoma = assay: Cell-death detection ELISA (apoptosis), SK-N-MC neuroblastoma; format: cell-based, Human
Experimental: as §1

[4] = concentration causing 2-fold change in apoptosis over control
[5] = concentration inducing the maximum fold apoptosis
[6] = maximal fold change over control

## Calcium Threonate [calcium threonate (CT)]
Hepatoma cells
  cell death (apoptosis) in hepatoma cells as compared to normal cellular counterparts: selective dose-dependent cell death (apoptosis)
Melanoma cells
  cell death (apoptosis) in melanoma cells as compared to normal cellular counterparts: selective dose-dependent cell death (apoptosis)

## Calcium Ascorbate
T-84 Colon Carcinoma; [4]
  MINIMUM APOPTOTIC DOSE, DOSE CONC. (%): >0.06%
T-84 Colon Carcinoma; [5]
  MAXIMUM FOLD INCREASE IN APOPTOSIS, DOSE CONC. (%): 0.033%
T-84 Colon Carcinoma; [6]
  MAXIMUM FOLD INCREASE IN APOPTOSIS: 1.77 fold
[1]; [4]
  MINIMUM APOPTOTIC DOSE, DOSE CONC. (%): 0.012%
[1]; [5]
  MAXIMUM FOLD INCREASE IN APOPTOSIS, DOSE CONC. (%): 0.012%
[1]; [6]
  MAXIMUM FOLD INCREASE IN APOPTOSIS: 2.22 fold
Malme-3M Melanoma; [4]
  MINIMUM APOPTOTIC DOSE, DOSE CONC. (%): 0.012%
Malme-3M Melanoma; [5]
  MAXIMUM FOLD INCREASE IN APOPTOSIS, DOSE CONC. (%): 0.025%
Malme-3M Melanoma; [6]
  MAXIMUM FOLD INCREASE IN APOPTOSIS: 92.8 fold
[2]; [4]
  MINIMUM APOPTOTIC DOSE, DOSE CONC. (%): 0.025%
[2]; [5]
  MAXIMUM FOLD INCREASE IN APOPTOSIS, DOSE CONC. (%): 0.025%
[2]; [6]
  MAXIMUM FOLD INCREASE IN APOPTOSIS: 2.16 fold
[3]; [4]
  MINIMUM APOPTOTIC DOSE, DOSE CONC. (%): 0.006%
[3]; [5]
  MAXIMUM FOLD INCREASE IN APOPTOSIS, DOSE CONC. (%): 0.033%
[3]; [6]
  MAXIMUM FOLD INCREASE IN APOPTOSIS: 12.04 fold
SK-N-MC Neuroblastoma; [4]
  MINIMUM APOPTOTIC DOSE, DOSE CONC. (%): 0.015%
SK-N-MC Neuroblastoma; [5]
  MAXIMUM FOLD INCREASE IN APOPTOSIS, DOSE CONC. (%): 0.015%
SK-N-MC Neuroblastoma; [6]
  MAXIMUM FOLD INCREASE IN APOPTOSIS: 5.03 fold

## O=C1O[C@H]([C@@H](O)CO)C(O)=C1O [ascorbic acid (AA), Ascorbic Acid]
Melanoma cells
  cell death (apoptosis) in melanoma cells as compared to normal cellular counterparts: selective dose-dependent cell death (apoptosis)
